We go through 37 compounds from US8227625B2, “4,5,6,7-tetrahydrobenzo[b]thiophene derivatives and their use as sigma receptor ligands” (Laboratorios del Dr. Esteve, S.A., priority 2006, dated 2012).

The melting point is the temperature of the solid-liquid transition. For the compound `O=C(O)C(=O)O.c1ccc2c(C3CCN(CCC4CCCc5sccc54)CC3)cccc2c1` (stereo not shown) [Example 32, 4-(naphthalen-1-yl)-1-(2-(4,5,6,7-tetrahydrobenzo[b]thiophen-4-yl)ethyl)piperidine oxalate], the melting point lay within 197 to 198 °C. The compound `O=C(O)C(=O)O.c1ccc2c(c1)CN(CCC1CCCc3sccc31)C2` (stereo not shown) [Example 22, 2-(2-(4,5,6,7-tetrahydrobenzo[b]thien-4-yl)ethyl)isoindoline oxalate] came in with a melting point of 203 to 205 °C.

Regarding `CN(C/C=C1\CCCc2sccc21)CCc1ccccc1.O=C(O)C(=O)O` [Example 8, (E)-N-(2-(6,7-dihydrobenzo[b]thien-4(5H)-ylidene)ethyl)-N-methyl-2-phenylethanamine oxalate], the melting point lay in the range of 129 to 130 °C. Compound `COc1cccc(C2CCN(CCC3CCCc4sccc43)CC2)c1.O=C(O)C(=O)O` (stereo not shown) [Example 44, 4-(3-methoxyphenyl)-1-(2-(4,5,6,7-tetrahydrobenzo[b]thiophen-4-yl)ethyl)piperidine oxalate] gave a melting point of 157 to 159 °C. For `Clc1cccc(C2CCN(CCC3CCCc4sccc43)CC2)c1.O=C(O)C(=O)O` (stereo not shown) [Example 42, 4-(3-chlorophenyl)-1-(2-(4,5,6,7-tetrahydrobenzo[b]thiophen-4-yl)ethyl)piperidine oxalate] the value was 185 to 186 °C; for `CC(C)(C)N1CCC2(CCN(CCC3CCCc4sccc43)CC2)C1=O.O=C(O)C(=O)O` (stereo not shown) [Example 81, 2-tert-butyl-8-[2-(4,5,6,7-tetrahydrobenzo[b]thiophen-4-yl)-ethyl]-2,8-diazaspiro[4.5]decan-1-one oxalate], 172 to 173 °C. With `CN(CCC1CCCc2sccc21)Cc1ccccc1.O=C(O)C(=O)O` (stereo not shown) [Example 24, N-benzyl-N-methyl-2-(4,5,6,7-tetrahydrobenzo[b]thien-4-yl)ethanamine oxalate] the figure was 168 to 171 °C; with `C(/CN1CCC(c2ccccc2)CC1)=C1/CCCc2sccc21.O=C(O)C(=O)O` [Example 6, (E)-1-(2-(6,7-dihydrobenzo[b]thien-4(5H)-ylidene)ethyl)-4-phenylpiperidine oxalate], 160 to 163 °C; with `Clc1cc(Cl)c2c(c1)CN(CCC1CCCc3sccc31)CC2.O=C(O)C(=O)O` (stereo not shown) [Example 77, 5,7-dichloro-2-(2-(4,5,6,7-tetrahydrobenzo[b]thiophen-4-yl)ethyl)-1,2,3,4-tetrahydroisoquinoline oxalate], 182 to 184 °C.

The compound `COc1ccccc1C1CCN(CCC2CCCc3sccc32)CC1.O=C(O)C(=O)O` (stereo not shown) [Example 36, 4-(2-methoxyphenyl)-1-(2-(4,5,6,7-tetrahydrobenzo[b]thiophen-4-yl)ethyl)piperidine oxalate] returned a melting point of 160 to 162 °C. For `O=C(O)C(=O)O.c1ccc2c(c1)COC21CCN(CCC2CCCc3sccc32)CC1` (stereo not shown) the value was 172 to 176 °C. The compound `O=C(O)C(=O)O.O=C1OC2(CCN(CCC3CCCc4sccc43)CC2)c2ccccc21` (stereo not shown) came in with a melting point of 186 to 189 °C. For `Fc1ccccc1C1CCN(CCC2CCCc3sccc32)CC1.O=C(O)C(=O)O` (stereo not shown) [Example 54, 4-(2-fluorophenyl)-1-(2-(4,5,6,7-tetrahydrobenzo[b]thiophen-4-yl)ethyl)piperidine oxalate] the value was 208 to 209 °C.

Compound `C(/CN1CCCCC1)=C1/CCCc2sccc21.O=C(O)C(=O)O` [Example 10, (E)-1-(2-(6,7-dihydrobenzo[b]thien-4(5H)-ylidene)ethyl)piperidine oxalate] displayed a melting point of 148 to 150 °C. The compound `CN(C/C=C1\CCCc2sccc21)Cc1ccccc1.O=C(O)C(=O)O` [Example 4, (E)-N-benzyl-2-(6,7-dihydrobenzo[b]thien-4(5H)-ylidene)-N-methylethanamine oxalate] gave a melting point of 139 to 141 °C. With `O=C(O)C(=O)O.O=C1NCCC12CCN(CCC1CCCc3sccc31)CC2` (stereo not shown) [Example 71, 8-[2-(4,5,6,7-Tetrahydrobenzo[b]thiophen-4-yl)-ethyl]-2,8-diazaspiro[4.5]decan-1-one oxalate] the figure was 147 to 149 °C; with `FC(F)(F)c1cc(C2CCN(CCC3CCCc4sccc43)CC2)cc(C(F)(F)F)c1.O=C(O)C(=O)O` (stereo not shown) [Example 48, 4-(3,5-bis(trifluoromethyl)phenyl)-1-(2-(4,5,6,7-tetrahydrobenzo[b]thiophen-4-yl)ethyl)piperidine oxalate], 205 to 206 °C. The compound `O=C(O)C(=O)O.O=C1N(c2ccc(F)cc2)CCC12CCN(CCC1CCCc3sccc31)CC2` (stereo not shown) [Example 95, 2-(4-Fluorophenyl)-8-[2-(4,5,6,7-tetrahydrobenzo[b]thiophen-4-yl)-ethyl]-2,8-diazaspiro[4.5]decan-1-one oxalate] registered a melting point of 195 to 199 °C.

`O=C(O)C(=O)O.c1ccc2[nH]c(C3CCN(CCC4CCCc5sccc54)CC3)nc2c1` (stereo not shown) [Example 59, 2-(1-(2-(4,5,6,7-tetrahydrobenzo[b]thiophen-4-yl)ethyl)piperidin-4-yl)-1H-benzo[d]imidazole oxalate] displayed a melting point of 223 to 225 °C. As for `O=C(O)C(=O)O.c1ccc2c(C3CCN(CCC4CCCc5sccc54)CC3)csc2c1` (stereo not shown) [Example 57, 4-(benzo[b]thiophen-3-yl)-1-(2-(4,5,6,7-tetrahydrobenzo[b]thiophen-4-yl)ethyl)piperidine oxalate], the melting point lay within 190 to 192 °C. For `O=C(O)C(=O)O.O=C1N(Cc2ccccc2)CCC12CCN(CCC1CCCc3sccc31)CC2` (stereo not shown) [Example 83, 2-benzyl-8-[2-(4,5,6,7-tetrahydrobenzo[b]thiophen-4-yl)-ethyl]-2,8-diazaspiro[4.5]decan-1-one oxalate] the value was 170 to 171 °C; for `C(/CN1CCOCC1)=C1/CCCc2sccc21.O=C(O)C(=O)O` [Example 14, (E)-4-(2-(6,7-dihydrobenzo[b]thien-4(5H)-ylidene)ethyl)morpholine oxalate], 171 to 174 °C; for `O=C(O)C(=O)O.OC1(c2ccc(Cl)cc2)CCN(CCC2CCCc3sccc32)CC1` (stereo not shown), 184 to 185 °C. For `CN1CCC2(CCN(CCC3CCCc4sccc43)CC2)C1=O.O=C(O)C(=O)O` (stereo not shown) [Example 65, 2-Methyl-8-[2-(4,5,6,7-tetrahydrobenzo[b]thiophen-4-yl)-ethyl]-2,8-diazaspiro[4.5]decan-1-one oxalate] the value was 140 to 142 °C; for `Fc1cccc(C2CCN(CCC3CCCc4sccc43)CC2)c1.O=C(O)C(=O)O` (stereo not shown) [Example 30, 4-(3-fluorophenyl)-1-(2-(4,5,6,7-tetrahydrobenzo[b]thiophen-4-yl)ethyl)piperidine oxalate], 203 to 204 °C. With `O=C(O)C(=O)O.c1ccc2c(c1)ccn2C1CCN(CCC2CCCc3sccc32)CC1` (stereo not shown) [Example 79, 1-(1-(2-(4,5,6,7-tetrahydrobenzo[b]thiophen-4-yl)ethyl)piperidin-4-yl)-1H-indole oxalate] the figure was 162 to 164 °C; with `O=C(O)C(=O)O.c1ccc2oc(C3CCN(CCC4CCCc5sccc54)CC3)cc2c1` (stereo not shown) [Example 52, 4-(benzofuran-2-yl)-1-(2-(4,5,6,7-tetrahydrobenzo[b]thiophen-4-yl)ethyl)piperidine oxalate], 207 to 208 °C. Regarding `Fc1ccc(C2CCN(CCC3CCCc4sccc43)CC2)cc1.O=C(O)C(=O)O` (stereo not shown) [Example 46, 4-(4-fluorophenyl)-1-(2-(4,5,6,7-tetrahydrobenzo[b]thiophen-4-yl)ethyl)piperidine oxalate], the melting point is 179 to 181 °C.

`O=C(O)C(=O)O.O=C1N(c2ccc(C(F)(F)F)cc2)CCC12CCN(CCC1CCCc3sccc31)CC2` (stereo not shown) [Example 89, 2-(4-trifluoromethylphenyl)-8-[2-(4,5,6,7-tetrahydrobenzo[b]thiophen-4-yl)-ethyl]-2,8-diazaspiro[4.5]decan-1-one oxalate]: the melting point was in the range of 166 to 168 °C. For `FC(F)(F)c1ccc(C2CCN(CCC3CCCc4sccc43)CC2)cc1.O=C(O)C(=O)O` (stereo not shown) [Example 26, 1-(2-(4,5,6,7-tetrahydrobenzo[b]thiophen-4-yl)ethyl)-4-(4-(trifluoromethyl)phenyl)piperidine oxalate] the value was 180 to 182 °C. With `Brc1cccc2c1CCN(CCC1CCCc3sccc31)C2.O=C(O)C(=O)O` (stereo not shown) [Example 91, 5-bromo-2-(2-(4,5,6,7-tetrahydrobenzo[b]thiophen-4-yl)ethyl)-1,2,3,4-tetrahydroisoquinoline oxalate] the figure was 167 to 168 °C; with `C1=CC2(CCN(CCC3CCCc4sccc43)CC2)c2ccccc21.O=C(O)C(=O)O` (stereo not shown), 198 to 199 °C. For `COc1ccc(C2CCN(CCC3CCCc4sccc43)CC2)cc1.O=C(O)C(=O)O` (stereo not shown) [Example 63, 4-(4-methoxyphenyl)-1-(2-(4,5,6,7-tetrahydrobenzo[b]thiophen-4-yl)ethyl)piperidine oxalate] the value was 175 to 176 °C. `COc1ccc2c(c1)CN(CCC1CCCc3sccc31)CC2.O=C(O)C(=O)O` (stereo not shown) [Example 75, 7-methoxy-2-(2-(4,5,6,7-tetrahydrobenzo[b]thiophen-4-yl)ethyl)-1,2,3,4-tetrahydroisoquinoline oxalate] came in with a melting point of 200 to 201 °C. Consider `O=C(O)C(=O)O.O=C1N(c2ccccc2)CCC12CCN(CCC1CCCc3sccc31)CC2` (stereo not shown) [Example 87, 2-phenyl-8-[2-(4,5,6,7-tetrahydrobenzo[b]thiophen-4-yl)-ethyl]-2,8-diazaspiro[4.5]decan-1-one oxalate], for which the melting point is 200 to 201 °C. With `Cc1nc2ccccc2n1C1CCN(CCC2CCCc3sccc32)CC1.O=C(O)C(=O)O` (stereo not shown) [Example 61, 2-methyl-1-(1-(2-(4,5,6,7-tetrahydrobenzo[b]thiophen-4-yl)ethyl)piperidin-4-yl)-1H-benzo[d]imidazole oxalate] the figure was 155 to 157 °C; with `O=C(O)C(=O)O.O=C1N(c2ccc(Cl)cc2)CCC12CCN(CCC1CCCc3sccc31)CC2` (stereo not shown) [Example 69, 2-(4-Chlorophenyl)-8-[2-(4,5,6,7-tetrahydrobenzo[b]thiophen-4-yl)-ethyl]-2,8-diazaspiro[4.5]decan-1-one oxalate], 218 to 220 °C.
